{"source": "patent US20210205277A1", "about": "“MODULATORS OF THE INTEGRATED STRESS PATHWAY” (Calico Life Sciences LLC, priority 2017, published 2021)"}
{"system": "HEK293T cells carrying the ATF4 luciferase reporter", "test": "ATF4-Luc assay (in vitro model of VWMD)", "format": "cell-based", "details": "Homo sapiens, HEK-293T; HEK293T cells with ATF4 5'-UTR firefly luciferase reporter; 1 μg/mL tunicamycin; 7 hours; One Glo luminescence", "procedure": "In order to test exemplary compounds of the invention in a cellular context, a stable VWMD cell line was first constructed. The ATF4 reporter was prepared by fusing the human full-length ATF4 5′-UTR (NCBI Accession No. BC022088.2) in front of the firefly luciferase (FLuc) coding sequence lacking the initiator methionine as described in Sidrauski et al (eLife 2013). The construct was used to produce recombinant retroviruses using standard methods and the resulting viral supernatant was used to transduce HEK293T cells, which were then subsequently selected with puromycin to generate a stable cell line.\nHEK293T cells carrying the ATF4 luciferase reporter were plated on polylysine coated 384-well plates (Greiner Bio-one) at 30,000 cells per well. Cells were treated the next day with 1 μg/mL tunicamycin and 200 nM of a compound of Formula (I) for 7 hours. Luminescence was measured using One Glo (Promega) as specified by the manufacturer. Cells were maintained in DMEM with L-glutamine supplemented with 10% heat-inactivated FBS (Gibco) and Antibiotic-Antimycotic solution (Gibco).\nTable 2 below summarizes the EC50 data obtained using the ATF4-Luc assay for exemplary compounds of the invention.", "units": {"EC50": "nM"}}
{"smiles": "O=C(COc1ccc(Cl)c(F)c1)NC12CCC(c3nnc(-c4ccc(Cl)c(F)c4)o3)(CC1)[C@H](O)C2", "note": "(single isomer, unassigned) [Compound 101]", "EC50": "< 10"}
{"smiles": "O=C(COc1ccc(Cl)c(F)c1)NC12CCC(c3nnc(-c4ccc(Cl)c(F)c4)o3)(CC1)C[C@H]2O", "note": "(single isomer, unassigned) [Compound 122]", "EC50": "< 10"}
{"smiles": "O=C(COc1ccc(Cl)c(F)c1)NC12CCC(c3nnc(-c4ccc(Cl)c(F)c4)o3)(CC1)C[C@@H]2O", "note": "(single isomer, unassigned) [Compound 123]", "EC50": "< 10"}
{"smiles": "O=C(COc1ccc(Cl)c(F)c1)NC12CCC(c3nnc(-c4ccc(Cl)c(F)c4)o3)(CC1)[C@@H](O)C2", "note": "[Compound 100, 2-(4-chloro-3-fluorophenoxy)-N-{(3S)-4-[5-(4-chloro-3-fluorophenyl)-1,3,4-oxadiazol-2-yl]-3-hydroxybicyclo[2.2.2]octan-1-yl}acetamide]", "EC50": "< 10"}
{"smiles": "O=C(COc1ccc(Cl)c(F)c1)NC12CCC(n3ccc(-c4ccc(Cl)c(F)c4)c3)(CC1)CC2O", "note": "(stereo not shown) [Compound 102, 2-(4-chloro-3-fluorophenoxy)-N-{4-[3-(4-chloro-3-fluorophenyl)-1H-pyrrol-1-yl]-2-hydroxybicyclo[2.2.2]octan-1-yl}acetamide]", "EC50": "< 10"}
{"smiles": "O=C(COc1ccc(Cl)c(F)c1)NC12CCC(c3nc(-c4ccc(Cl)c(F)c4)no3)(CC1)[C@H](O)C2", "note": "[Compound 103, 2-(4-chloro-3-fluorophenoxy)-N-{(3R)-4-[3-(4-chloro-3-fluorophenyl)-1,2,4-oxadiazol-5-yl]-3-hydroxybicyclo[2.2.2]octan-1-yl}acetamide]", "EC50": "10 to 50"}
{"smiles": "O=C(COc1ccc(Cl)c(F)c1)NC12CCC(c3nc(-c4ccc(Cl)c(F)c4)no3)(CC1)[C@@H](O)C2", "note": "[Compound 104, 2-(4-chloro-3-fluorophenoxy)-N-{(3S)-4-[3-(4-chloro-3-fluorophenyl)-1,2,4-oxadiazol-5-yl]-3-hydroxybicyclo[2.2.2]octan-1-yl}acetamide]", "EC50": "< 10"}
{"smiles": "O=C(COc1ccc(Cl)c(F)c1)NC12CCC(c3nc(-c4ccc(Cl)c(F)c4)no3)(CC1)C(=O)C2", "note": "[Compound 105, 2-(4-chloro-3-fluorophenoxy)-N-{4-[3-(4-chloro-3-fluorophenyl)-1,2,4-oxadiazol-5-yl]-3-oxobicyclo[2.2.2]octan-1-yl}acetamide]", "EC50": "< 10"}
{"smiles": "O=C(COc1ccc(Cl)c(F)c1)NC12CCC(c3nnc(-c4ccc(Cl)c(F)c4)o3)(CC1)C(=O)C2", "note": "[Compound 106, 2-(4-chloro-3-fluorophenoxy)-N-{4-[5-(4-chloro-3-fluorophenyl)-1,3,4-oxadiazol-2-yl]-3-oxobicyclo[2.2.2]octan-1-yl}acetamide]", "EC50": "< 10"}
{"smiles": "O=C(COc1ccc(Cl)c(F)c1)NC12CCC(c3nnc(-c4ccc(Cl)c(F)c4)o3)(CC1)C(O)C2", "note": "(stereo not shown) [Compound 107, 2-(4-chloro-3-fluorophenoxy)-N-{4-[5-(4-chloro-3-fluorophenyl)-1,3,4-oxadiazol-2-yl]-3-hydroxybicyclo[2.2.2]octan-1-yl}acetamide]", "EC50": "< 10"}
{"smiles": "O=C(COc1ccc(Cl)c(F)c1)NC12CCC(c3nnc(-c4ccc(Cl)c(F)c4)o3)(CC1)CC2O", "note": "(stereo not shown) [Compound 108, 2-(4-chloro-3-fluorophenoxy)-N-{4-[5-(4-chloro-3-fluorophenyl)-1,3,4-oxadiazol-2-yl]-2-hydroxybicyclo[2.2.2]octan-1-yl}acetamide]", "EC50": "< 10"}
{"smiles": "O=C(COc1ccc(Cl)c(F)c1)NC12CCC(n3ccc(-c4ccc(Cl)cc4)c3)(CC1)CC2O", "note": "(stereo not shown) [Compound 109, 2-(4-chloro-3-fluorophenoxy)-N-{4-[3-(4-chlorophenyl)-1H-pyrrol-1-yl]-2-hydroxybicyclo[2.2.2]octan-1-yl}acetamide]", "EC50": "10 to 50"}
{"smiles": "O=C(COc1ccc(Cl)c(F)c1)NC12CCC(c3ncc(-c4ccc(Cl)cc4)[nH]3)(CC1)[C@@H](O)C2", "note": "[Compound 110, 2-(4-chloro-3-fluorophenoxy)-N-{(3S)-4-[5-(4-chlorophenyl)-1H-imidazol-2-yl]-3-hydroxybicyclo[2.2.2]octan-1-yl}acetamide]", "EC50": "< 10"}
{"smiles": "O=C(COc1ccc(Cl)c(F)c1)NC12CCC(c3nc(-c4ccc(Cl)c(F)c4)no3)(CC1)CC2=O", "note": "[Compound 111, 2-(4-chloro-3-fluorophenoxy)-N-{4-[3-(4-chloro-3-fluorophenyl)-1,2,4-oxadiazol-5-yl]-2-oxobicyclo[2.2.2]octan-1-yl}acetamide]", "EC50": "> 2000"}
{"smiles": "O=C(COc1ccc(Cl)c(F)c1)NC12CCC(n3nccc3-c3ccc(Cl)c(F)c3)(CC1)C[C@@H]2O", "note": "[Compound 112, 2-(4-chloro-3-fluorophenoxy)-N-{(2S)-4-[5-(4-chloro-3-fluorophenyl)-1H-pyrazol-1-yl]-2-hydroxybicyclo[2.2.2]octan-1-yl}acetamide]", "EC50": "500 to 2000"}
{"smiles": "O=C(COc1ccc(Cl)c(F)c1)NC12CCC(n3ccc(-c4ccc(Cl)c(F)c4)c3)(CC1)C[C@@H]2O", "note": "[Compound 113, 2-(4-chloro-3-fluorophenoxy)-N-{(2S)-4-[3-(4-chloro-3-fluorophenyl)-1H-pyrrol-1-yl]-2-hydroxybicyclo[2.2.2]octan-1-yl}acetamide]", "EC50": "< 10"}
{"smiles": "O=C(COc1ccc(Cl)c(F)c1)NC12CCC(c3ncc(-c4ccc(Cl)cc4)o3)(CC1)[C@H](O)C2", "note": "[Compound 114, 2-(4-chloro-3-fluorophenoxy)-N-{(3R)-4-[5-(4-chlorophenyl)-1,3-oxazol-2-yl]-3-hydroxybicyclo[2.2.2]octan-1-yl}acetamide]", "EC50": "< 10"}
{"smiles": "O=C(COc1ccc(Cl)c(Cl)c1)NC12CCC(n3ccc(-c4ccc(Cl)c(F)c4)c3)(CC1)C[C@@H]2O", "note": "[Compound 115, N-{(2S)-4-[3-(4-chloro-3-fluorophenyl)-1H-pyrrol-1-yl]-2-hydroxybicyclo[2.2.2]octan-1-yl}-2-(3,4-dichlorophenoxy)acetamide]", "EC50": "< 10"}
{"smiles": "O=C(COc1ccc(Cl)c(F)c1)NC12CC(c3ncc(-c4ccc(Cl)c(F)c4)[nH]3)(C1)C2", "note": "[Compound 116, 2-(4-chloro-3-fluorophenoxy)-N-{3-[5-(4-chloro-3-fluorophenyl)-1H-imidazol-2-yl]bicyclo[1.1.1]pentan-1-yl}acetamide]", "EC50": "< 10"}
{"smiles": "Cn1c(-c2ccc(Cl)c(F)c2)cnc1C12CC(NC(=O)COc3ccc(Cl)c(F)c3)(C1)C2", "note": "[Compound 117, 2-(4-chloro-3-fluorophenoxy)-N-{3-[5-(4-chloro-3-fluorophenyl)-1-methyl-1H-imidazol-2-yl]bicyclo[1.1.1]pentan-1-yl}acetamide]", "EC50": "10 to 50"}
{"smiles": "O=C(COc1ccc(Cl)c(F)c1)NC12CCC(c3ncc(-c4ccc(Cl)cc4)[nH]3)(CC1)[C@H](O)C2", "note": "[Compound 118, 2-(4-chloro-3-fluorophenoxy)-N-{(3R)-4-[5-(4-chlorophenyl)-1H-imidazol-2-yl]-3-hydroxybicyclo[2.2.2]octan-1-yl}acetamide]", "EC50": "< 10"}
{"smiles": "O=C(COc1ccc(Cl)c(F)c1)NC12CCC(c3ncc(-c4ccc(Cl)c(F)c4)[nH]3)(CC1)[C@@H](O)C2", "note": "[Compound 119, 2-(4-chloro-3-fluorophenoxy)-N-{(3S)-4-[5-(4-chloro-3-fluorophenyl)-1H-imidazol-2-yl]-3-hydroxybicyclo[2.2.2]octan-1-yl}acetamide]", "EC50": "< 10"}
{"smiles": "O=C(NC12CCC(c3nc(-c4cccc(F)c4)no3)(CC1)C(O)C2)c1cc(C(F)F)no1", "note": "(stereo not shown) [Compound 120, 3-(difluoromethyl)-N-{4-[3-(3-fluorophenyl)-1,2,4-oxadiazol-5-yl]-3-hydroxybicyclo[2.2.2]octan-1-yl}-1,2-oxazole-5-carboxamide]", "EC50": "> 2000"}
{"smiles": "O=C(NC12CCC(c3nc(-c4ccc(Cl)c(F)c4)no3)(CC1)C(O)C2)c1cc(C(F)F)no1", "note": "(stereo not shown) [Compound 121, N-{4-[3-(4-chloro-3-fluorophenyl)-1,2,4-oxadiazol-5-yl]-3-hydroxybicyclo[2.2.2]octan-1-yl}-3-(difluoromethyl)-1,2-oxazole-5-carboxamide]", "EC50": "500 to 2000"}
{"smiles": "COc1ncc(-c2nnc(C34CCC(NC(=O)COc5ccc(Cl)c(F)c5)(CC3)C(O)C4)o2)cn1", "note": "(stereo not shown) [Compound 124, 2-(4-chloro-3-fluorophenoxy)-N-{2-hydroxy-4-[5-(2-methoxypyrimidin-5-yl)-1,3,4-oxadiazol-2-yl]bicyclo[2.2.2]octan-1-yl}acetamide]", "EC50": "> 2000"}
